# Experimental data: BindingDB's records for patent US10696638 (INDUSTRIAL TECHNOLOGY RESEARCH INSTITUTE, 2020)
# pIC50: −log10 of the molar value.
# Target: Rho-associated protein kinase 2 (Homo sapiens, UniProt O75116)
# Assay: ELISA Assay
# Description: ROCK Substrate Coated Plate (Part No 241601): One strip well 96-well plate pre-coated with recombinant MYPT1.Buffer: 25 mM Tris, pH 7.5, 10 mM MgCl2, 5 mM Glycerol-2-Phosphate, 0.1 mM Na3VO4; 1% DMSO; 2.5 mM DTT; (Enzyme: ROCK active-II) (Cell Biolabs, Catalog #STA-406, Part No. 241505) 0.1 ng/μl.ATP Solution (Part No. 241604): 100 mM ATP. Final concentration of ATP in reaction mixture: 250 μM.Anti-phospho-MYPT1 (Thr696) (Part No. 241603).Secondary Antibody, HRP Conjugate (Part No. 231003).Biotinylated substrate, diluted to 0.25 μM with buffer described above (without ATP).Steps:1. Purified kinase or cell lysate sample can be used directly in the kinase assay or further diluted with 1× Kinase Buffer. Each sample should be assayed in duplicate.2. Add 90 μL of the diluted active ROCK-II positive control or unknown ROCK samples to the wells of the substrate plate.3. Initiate the kinase reaction by adding 10 μL of the 10× Kinase Reaction Buffer containing DTT and ATP. Mix well.4. Cover with a plate cover and incubate the wells at 30° C. for 30-60 minutes with gentle agitation.5. Stop kinase reaction by flicking out the content or by adding 50 μL of 0.5M EDTA, pH 8.0, to each well.6. Remove the plate cover and empty wells. Wash microwell strips 3 times with 250 μL 1× Wash Buffer per well with thorough aspiration between each wash. After the last wash, empty wells and tap microwell strips on absorbent pad or paper towel to remove excess 1× Wash Buffer.7. Add 100 μL of the diluted anti-phospho-MYPT1 (Thr696) antibody to each well.8. Cover with the plate cover and incubate at room temperature for 1 hour on an orbital shaker.9. Remove the plate cover and empty wells. Wash the strip wells 3 times according to step 6 above.10. Add 100 μL of the diluted HRP-conjugated secondary antibody to each well.11. Cover with the plate cover and incubate at room temperature for 1 hour on an orbital shaker.12. Remove the plate cover and empty wells. Wash microwell strips 3 times according to step 6 above. Proceed immediately to the next step.13. Warm Substrate Solution to room temperature. Add 100 μL of Substrate Solution to each well, including the blank wells. Incubate at room temperature for 5-20 minutes on an orbital shaker.14. Stop the enzyme reaction by adding 100 μL of Stop Solution into each well, including the blank wells. Results should be read immediately (color will fade over time).15. Read absorbance of each microwell on a spectrophotometer using 450 nm as the primary wave length.
# Sequence of Rho-associated protein kinase 2 (O75116 whole entry): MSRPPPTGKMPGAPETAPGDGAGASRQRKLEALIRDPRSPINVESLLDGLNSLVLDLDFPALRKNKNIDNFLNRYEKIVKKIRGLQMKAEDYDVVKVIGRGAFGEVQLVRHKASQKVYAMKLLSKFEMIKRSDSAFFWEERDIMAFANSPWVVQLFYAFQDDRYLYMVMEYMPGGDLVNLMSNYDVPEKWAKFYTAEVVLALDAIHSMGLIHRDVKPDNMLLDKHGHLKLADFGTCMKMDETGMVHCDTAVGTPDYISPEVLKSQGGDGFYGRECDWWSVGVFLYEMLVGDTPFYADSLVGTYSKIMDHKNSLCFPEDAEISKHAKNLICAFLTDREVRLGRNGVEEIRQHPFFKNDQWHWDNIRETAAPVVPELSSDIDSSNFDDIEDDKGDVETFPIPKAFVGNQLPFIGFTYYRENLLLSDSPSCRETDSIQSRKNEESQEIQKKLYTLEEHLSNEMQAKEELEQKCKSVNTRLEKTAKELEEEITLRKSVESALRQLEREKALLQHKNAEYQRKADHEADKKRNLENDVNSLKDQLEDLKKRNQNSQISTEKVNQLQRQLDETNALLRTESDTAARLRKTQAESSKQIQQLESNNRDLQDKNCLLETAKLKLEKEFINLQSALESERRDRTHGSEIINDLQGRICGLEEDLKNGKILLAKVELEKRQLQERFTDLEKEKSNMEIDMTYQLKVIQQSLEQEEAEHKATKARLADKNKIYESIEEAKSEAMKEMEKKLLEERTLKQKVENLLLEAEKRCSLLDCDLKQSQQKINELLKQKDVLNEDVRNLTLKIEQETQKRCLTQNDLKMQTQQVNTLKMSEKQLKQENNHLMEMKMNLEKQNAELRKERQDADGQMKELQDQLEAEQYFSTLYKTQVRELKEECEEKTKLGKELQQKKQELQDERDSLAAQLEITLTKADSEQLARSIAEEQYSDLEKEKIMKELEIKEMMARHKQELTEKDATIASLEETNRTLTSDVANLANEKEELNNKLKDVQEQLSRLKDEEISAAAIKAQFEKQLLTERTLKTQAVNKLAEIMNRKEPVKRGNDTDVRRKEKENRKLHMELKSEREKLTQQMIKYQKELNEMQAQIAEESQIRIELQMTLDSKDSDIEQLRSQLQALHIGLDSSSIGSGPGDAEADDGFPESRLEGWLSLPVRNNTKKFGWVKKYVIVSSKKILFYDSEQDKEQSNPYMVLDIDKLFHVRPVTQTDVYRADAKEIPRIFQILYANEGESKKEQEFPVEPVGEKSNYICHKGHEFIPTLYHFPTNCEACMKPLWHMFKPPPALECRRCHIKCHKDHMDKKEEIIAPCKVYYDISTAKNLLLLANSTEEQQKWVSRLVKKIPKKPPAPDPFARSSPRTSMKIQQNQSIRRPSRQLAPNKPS
row,SMILES,pIC50
1,"O=C(Nc1cccc2cnccc12)N[C@@H](CO)c1ccccc1 [US10696638, formula (I) 4]",< 6.00
2,"CN(C)CCN(Cc1ccc(F)cc1)C(=O)Nc1ccc2cnccc2c1 [US10696638, Table 1.2]",< 6.00
3,"O=C(Nc1cccc2cnccc12)N(Cc1ccc(Cl)cc1)C1CCNCC1 [US10696638, formula (I) 9]",< 6.00
4,"CN(C)CCN(Cc1ccc(F)cc1)C(=O)Nc1cccc2cnccc12 [US10696638, formula (I) 5]",< 6.00
5,"O=C(Nc1ccc2cnccc2c1)N[C@@H](CO)c1ccccc1 [US10696638, Table 1.6]",< 6.00
